pEC50: −log10 of the molar value.
Columns and labels:
human FPR2 = biological target: T1, human FPR2 (Homo sapiens, UniProt P25090); assay: FPR2 cyclic adenosine monophosphate (cAMP) assay; assay type: cell-based; conditions: CHO cells overexpressing human FPR2; forskolin 5 μM; inhibition of cAMP production; HTRF; read-out: hFPR2 cAMP2 EC50
T1 sequence (P25090 1-351): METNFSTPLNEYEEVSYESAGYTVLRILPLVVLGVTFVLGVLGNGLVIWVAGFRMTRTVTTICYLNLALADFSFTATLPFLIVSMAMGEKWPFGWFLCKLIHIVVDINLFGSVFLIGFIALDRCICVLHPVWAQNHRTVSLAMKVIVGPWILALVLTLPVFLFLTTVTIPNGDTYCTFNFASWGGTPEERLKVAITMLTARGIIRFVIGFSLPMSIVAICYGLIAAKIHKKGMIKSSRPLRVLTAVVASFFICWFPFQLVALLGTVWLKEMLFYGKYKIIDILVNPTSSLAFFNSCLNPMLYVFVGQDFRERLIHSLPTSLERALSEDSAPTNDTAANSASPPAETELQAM
Procedure, shortened: (§1)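 Inhibition of forskolin-stimulated cAMP (final forskolin 5 μM for FPR2, 10 μM for FPR1; IBMX 200 μM) was measured by HTRF in recombinant CHO cells after 30 min at room temperature.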

human FPR1 = biological target: T2, human FPR1 (Homo sapiens, UniProt P21462); assay: FPR1 cyclic adenosine monophosphate (cAMP) assay; assay type: cell-based; conditions: CHO cells overexpressing human FPR1; forskolin 10 μM; inhibition of cAMP production; HTRF; read-out: hFPR1 cAMP2 EC50
T2 sequence (P21462 1-350): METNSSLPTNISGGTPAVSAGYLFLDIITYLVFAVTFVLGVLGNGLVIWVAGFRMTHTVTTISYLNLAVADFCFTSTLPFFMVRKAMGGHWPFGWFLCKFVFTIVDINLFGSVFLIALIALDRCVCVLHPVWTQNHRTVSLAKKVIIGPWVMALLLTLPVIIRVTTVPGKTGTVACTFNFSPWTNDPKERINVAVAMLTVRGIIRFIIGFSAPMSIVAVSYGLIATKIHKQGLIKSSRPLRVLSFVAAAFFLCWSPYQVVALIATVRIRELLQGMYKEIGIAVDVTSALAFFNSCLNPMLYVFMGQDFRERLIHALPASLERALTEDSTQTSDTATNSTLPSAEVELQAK
Procedure, shortened: as §1

Row | pEC50 (human FPR2) | pEC50 (human FPR1) | SMILES
1 | 8.52 | 5.17 | COc1cc(F)c(-c2c(NC(=O)c3ccc(OC(F)F)cc3)c(=O)n(-c3nc(N(C)C)ccc3C(F)(F)F)n2C)c(F)c1 [Example 136, N-[5-(2,6-difluoro-4-methoxyphenyl)-2-[6-(dimethylamino)-3-(trifluoromethyl)pyridin-2-yl]-1-methyl-3-oxo-2,3-dihydro-1H-pyrazol-4-yl]-4-(difluoromethoxy)benzamide]
2 | 7.80 | 5.15 | COc1cc(F)c(-c2c(NC(=O)c3ccc(OC(F)F)cc3)c(=O)n(-c3nc(N4C5CCC4CN(C)C5)ccc3C(F)(F)F)n2C)c(F)c1 [Example 137, N-[5-(2,6-difluoro-4-methoxyphenyl)-1-methyl-2-(6-{3-methyl-3,8-diazabicyclo[3.2.1]octan-8-yl}-3-(trifluoromethyl)pyridin-2-yl)-3-oxo-2,3-dihydro-1H-pyrazol-4-yl]-4-(difluoromethoxy)benzamide]
3 | 8.40 | 5.32 | COc1cc(F)c(-c2c(NC(=O)c3ccc(OC(F)F)cc3)c(=O)n(-c3nc(N4CC(C)(O)C4)ccc3C(F)(F)F)n2C)c(F)c1 [Example 138, N-[5-(2,6-difluoro-4-methoxyphenyl)-2-[6-(3-hydroxy-3-methylazetidin-1-yl)-3-(trifluoromethyl)pyridin-2-yl]-1-methyl-3-oxo-2,3-dihydro-1H-pyrazol-4-yl]-4-(difluoromethoxy)benzamide]
4 | 8.52 | < 5.00 | COc1cc(F)c(-c2c(NC(=O)c3ccc(OC(F)F)cc3)c(=O)n(-c3nc(N(CCO)CCO)ccc3C(F)(F)F)n2C)c(F)c1 [Example 139, N-(2-{6-[bis(2-hydroxyethyl)amino]-3-(trifluoromethyl)pyridin-2-yl}-5-(2,6-difluoro-4-methoxyphenyl)-1-methyl-3-oxo-2,3-dihydro-1H-pyrazol-4-yl)-4-(difluoromethoxy)benzamide]
5 | 8.40 | 5.82 | COc1cc(F)c(-c2c(NC(=O)c3ccc(OC(F)F)cc3)c(=O)n(-c3nc(N4CC(OC(C)C)C4)ccc3C(F)(F)F)n2C)c(F)c1 [Example 140, N-[5-(2,6-difluoro-4-methoxyphenyl)-1-methyl-3-oxo-2-{6-[3-(propan-2-yloxy)azetidin-1-yl]-3-(trifluoromethyl)pyridin-2-yl}-2,3-dihydro-1H-pyrazol-4-yl]-4-(difluoromethoxy)benzamide]
6 | 8.15 | 5.48 | COc1cc(F)c(-c2c(NC(=O)c3ccc(Cl)cc3)c(=O)n(-c3nc(N4CC(OC(C)C)C4)ccc3C(F)(F)F)n2C)c(F)c1 [Example 141, 4-chloro-N-[5-(2,6-difluoro-4-methoxyphenyl)-1-methyl-3-oxo-2-{6-[3-(propan-2-yloxy)azetidin-1-yl]-3-(trifluoromethyl)pyridin-2-yl}-2,3-dihydro-1H-pyrazol-4-yl]benzamide]
7 | 7.77 | 5.51 | COc1cc(F)c(-c2c(NC(=O)c3ccc(OC(F)F)cc3)c(=O)n(-c3ncccc3N(C)C)n2C)c(F)c1 [Example 142, N-[5-(2,6-difluoro-4-methoxyphenyl)-2-[3-(dimethylamino)pyridin-2-yl]-1-methyl-3-oxo-2,3-dihydro-1H-pyrazol-4-yl]-4-(difluoromethoxy)benzamide]
8 | 8.00 | 5.43 | COc1cc(F)c(-c2c(NC(=O)c3ccc(OC(F)F)cc3)c(=O)n(-c3nc(N4CCN(C)CC4)ccc3Cl)n2C)c(F)c1 [Example 143, N-{2-[3-chloro-6-(4-methylpiperazin-1-yl)pyridin-2-yl]-5-(2,6-difluoro-4-methoxyphenyl)-1-methyl-3-oxo-2,3-dihydro-1H-pyrazol-4-yl}-4-(difluoromethoxy)benzamide]
9 | 7.66 | < 5.00 | COc1cc(F)c(-c2c(NC(=O)c3ccc(OC(F)F)cc3)c(=O)n(-c3nc(Cl)ccc3N3CC4(COC4)C3)n2C)c(F)c1 [Example 144, N-[2-(6-chloro-3-{2-oxa-6-azaspiro[3.3]heptan-6-yl}pyridin-2-yl)-5-(2,6-difluoro-4-methoxyphenyl)-1-methyl-3-oxo-2,3-dihydro-1H-pyrazol-4-yl]-4-(difluoromethoxy)benzamide]
10 | 8.52 | 5.54 | COc1cc(F)c(-c2c(NC(=O)c3ccc(OC(F)F)cc3)c(=O)n(-c3nc(N4CC(F)(F)C4)ccc3Cl)n2C)c(F)c1 [Example 145, N-{2-[3-chloro-6-(3,3-difluoroazatidin-1-yl)pyridin-4-methoxyphenyl)-1-methyl-3-oxo-2,3-dihydro-1H-pyrazol-4-yl}-4-(difluoromethoxy)benzamide]
11 | 8.22 | < 5.00 | COc1cc(F)c(-c2c(NC(=O)c3ccc(OC(F)F)cc3)c(=O)n(-c3nc(Cl)ccc3F)n2C)c(F)c1 [Example 146, N-[2-(6-chloro-3-fluoropyridin-2-yl)-5-(2,6-difluoro-4-methoxyphenyl)-1-methyl-3-oxo-2,3-dihydro-1H-pyrazol-4-yl]-4-(difluoromethoxy)benzamide]
12 | 8.52 | 6.14 | COc1cc(F)c(-c2c(NC(=O)c3ccc(OC(F)F)cc3)c(=O)n(-c3nc(N(C)C)ccc3Cl)n2C)c(F)c1 [Example 147, N-{2-[3-chloro-6-(dimethylamino)pyridin-2-yl]-5-(2,6-difluoro-4-methoxyphenyl)-1-methyl-3-oxo-2,3-dihydro-1H-pyrazol-4-yl}-4-(difluoromethoxy)benzamide]
13 | 8.40 | 5.82 | COc1cc(F)c(-c2c(NC(=O)c3ccc(OC(F)F)cc3)c(=O)n(-c3cc(F)cc(C(C)(C)O)c3)n2C)c(F)c1 [Example 148, N-[5-(2,6-difluoro-4-methoxyphenyl)-2-[3-fluoro-5-(2-hydroxypropan-2-yl)phenyl]-1-methyl-3-oxo-2,3-dihydro-1H-pyrazol-4-yl]-4-(difluoromethoxy)benzamide]
14 | 8.22 | 5.33 | COc1cc(F)c(-c2c(NC(=O)c3ccc(OC(F)F)cc3)c(=O)n(-c3cc(Cl)cc(N4C[C@H]5C[C@@H]4CN5)c3)n2C)c(F)c1 [Example 149, N-(2-{3-chloro-5-[(1R,4R)-2,5-diazabicyclo[2.2.1]heptan-2-yl]phenyl}-5-(2,6-difluoro-4-methoxyphenyl)-1-methyl-3-oxo-2,3-dihydro-1H-pyrazol-4-yl)-4-(difluoromethoxy)benzamide]
15 | 7.89 | 5.82 | COc1cc(F)c(-c2c(NC(=O)c3ccc(OC(F)F)cc3)c(=O)n(-c3cccc(N4CCCCC4=O)n3)n2C)c(F)c1 [Example 150, N-[5-(2,6-difluoro-4-methoxyphenyl)-1-methyl-3-oxo-2-[6-(2-oxopiperidin-1-yl)pyridin-2-yl]-2,3-dihydro-1H-pyrazol-4-yl]-4-(difluoromethoxy)benzamide]
16 | 7.89 | 5.57 | COc1cc(F)c(-c2c(NC(=O)c3ccc(OC(F)(F)F)cc3)c(=O)n(-c3cc(C)ccn3)n2C)c(F)c1 [Example 151, N-[5-(2,6-difluoro-4-methoxyphenyl)-1-methyl-2-(4-methylpyridin-2-yl)-3-oxo-2,3-dihydro-1H-pyrazol-4-yl]-4-(trifluoromethoxy)benzamide]
17 | 8.00 | < 5.00 | COc1cc(F)c(-c2c(NC(=O)c3ccc(OC(F)F)cc3)c(=O)n(-c3cc(Cl)ccn3)n2C)c(F)c1 [Example 152, N-[2-(4-chloropyridin-2-yl)-5-(2,6-difluoro-4-methoxyphenyl)-1-methyl-3-oxo-2,3-dihydro-1H-pyrazol-4-yl]-4-(difluoromethoxy)benzamide]
18 | 8.30 | 5.38 | COc1cc(F)c(-c2c(NC(=O)c3ccc(OC(F)(F)F)cc3)c(=O)n(-c3cc(Cl)ccn3)n2C)c(F)c1 [Example 153, N-[2-(4-chloropyridin-2-yl)-5-(2,6-difluoro-4-methoxyphenyl)-1-methyl-3-oxo-2,3-dihydro-1H-pyrazol-4-yl]-4-(trifluoromethoxy)benzamide]
19 | 8.40 | < 5.00 | COc1cc(F)c(-c2c(NC(=O)c3ccc(OC(F)(F)F)cc3)c(=O)n(-c3ncccc3C(F)(F)F)n2C)c(F)c1 [Example 154, N-[5-(2,6-difluoro-4-methoxyphenyl)-1-methyl-3-oxo-2-[3-(trifluoromethyl)pyridin-2-yl]-2,3-dihydro-1H-pyrazol-4-yl]-4-(trifluoromethoxy)benzamide]
20 | 8.05 | 5.66 | COc1cc(F)c(-c2c(NC(=O)c3ccc(OC(F)(F)F)cc3)c(=O)n(-c3cccc(C(F)(F)F)n3)n2C)c(F)c1 [Example 155, N-[5-(2,6-difluoro-4-methoxyphenyl)-1-methyl-3-oxo-2-[6-(trifluoromethyl)pyridin-2-yl]-2,3-dihydro-1H-pyrazol-4-yl]-4-(trifluoromethoxy)benzamide]
